Experimental data taken from the NIST ThermoML archive (doi:10.1016/j.jct.2011.01.017).

Conditions: Liquid, DSC

CCCCCCCCCCCC(=O)OCC [ethyl dodecanoate]
Conditions	vapor or sublimation pressure [kPa]
420.05 K	1.33
432.13 K	2.67
443.41 K	4
451.05 K	5.33
456.47 K	6.67
462.44 K	8
464.35 K	9.33

CCCCCCCCCCCCCCCC(=O)OCC [ethyl hexadecanoate]
Conditions	vapor or sublimation pressure [kPa]
464.49 K	1.33
481.9 K	2.67
495.23 K	4
502.27 K	5.33
508.1 K	6.67
512.23 K	8
515.13 K	9.33

CCCCCCCCCCCCCCCCCC(=O)OCC [ethyl octadecanoate]
Conditions	vapor or sublimation pressure [kPa]
490.97 K	1.33
505.55 K	2.67
512.98 K	4
520.56 K	5.33
524.45 K	6.67
525.78 K	8
533.97 K	9.33

CCCCCCCCCCCCCC(=O)OCC [ethyl tetradecanoate]
Conditions	vapor or sublimation pressure [kPa]
446.06 K	1.33
460.03 K	2.67
470.26 K	4
476.75 K	5.33
481.32 K	6.67
487.01 K	8
492.47 K	9.33

CCCCCCCC/C=C\CCCCCCCC(=O)OCC [ethyl (Z)-9-octadeceneoate]
Conditions	vapor or sublimation pressure [kPa]
486.64 K	1.33
500.98 K	2.67
508.03 K	4
514.61 K	5.33
523.69 K	6.67
528.56 K	8
536.83 K	9.33

CCCCC/C=C\C/C=C\CCCCCCCC(=O)OCC [ethyl linoleate]
Conditions	vapor or sublimation pressure [kPa]
486.64 K	1.33
501.94 K	2.67
510.65 K	4
515.7 K	5.33
520.91 K	6.67
527.47 K	8
537.39 K	9.33
